Reference: patent US20240417411A1, “COMPOUNDS AND METHODS FOR TREATMENT OF VIRAL INFECTIONS” (priority 2023, published 2024)

What was measured:
[1] = test system: SARS-CoV2-NLuc; experiment: microbe, parasite or virus in culture; assay type: cell-based, SARS Coronavirus 2; conditions: Severe acute respiratory syndrome coronavirus 2, 48 h, read-out: SARS-CoV2 EC50 (nM)
[2] = test system: RSV-Luc5; experiment: microbe, parasite or virus in culture; assay type: cell-based; conditions: human respiratory syncytial virus, NHBE, 72 h, read-out: RSV NHBE EC50 (nM)
[3] = in vitro; assay type: cell-based; conditions: human
Outline: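 Uninfected MT4 cells cultured with compound 4–5 days at 37 °C, equilibrated to 25 °C, and viability read by CellTiter-Glo luminescence. Untreated and 2 μM puromycin-treated cells defined 100% and 0% viability; CC50, the concentration reducing viability by 50%, from non-linear regression.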

[4] = in vitro; assay type: in vitro ADME; conditions: human, s9, pH 7.4
Outline: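 Test compounds at 2 μM final were incubated in a GI S9 reaction mixture, reactions being started by substrate addition. Diluted supernatants were quantified by LC/MS on a Q-Exactive using analyte/internal standard peak area ratios, with 0.1% formic acid water/acetonitrile gradient elution and 5 ppm mass tolerance.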

[5] = 2 μM
[6] = test system: Caco-2 cells (clone C2BBe1); conditions: human, Caco-2

Row | Structure (SMILES) | EC50 [1] | EC50 [2] | CC50 [3] | half-life at 2 μM [4] | Human Plasma T1/2 [5] | Caco2 A to B [6] | Caco2 B to A [6]
1 | N#C[C@@]1(c2ccc3c(N)ncnn23)O[C@H](COC(=O)OC2CCOC2)[C@H]2OC(=O)CCCC(=O)O[C@H]21 (stereo partly drawn) [Compound C23, ((7aR,8R,10R,10aR)-10-(4-aminopyrrolo[2,1-f][1,2,4]triazin-7-yl)-10-cyano-2,6-dioxooctahydro-2H-furo[3,4-b][1,4]dioxonin-8-yl)methyl (tetrahydrofuran-3-yl) carbonate] | 18400 nM | 19900 nM | > 50 µM | 34.1 s | 180 s | 0.66 | 4.38
2 | CC(C)C(=O)OC[C@H]1O[C@@](C#N)(c2ccc3c(N)ncnn23)[C@@H]2OC(=O)CCCC(=O)O[C@@H]21 [Compound C54, ((7aR,8R,10R,10aR)-10-(4-aminopyrrolo[2,1-f][1,2,4]triazin-7-yl)-10-cyano-2,6-dioxooctahydro-2H-furo[3,4-b][1,4]dioxonin-8-yl)methyl isobutyrate] | 7880 nM | 6040 nM | > 50 µM | 35.3 s | 180 s | 1 | 2.98
